Test results: PMC6992764 (Nature Communications, 2020)

Key:
[1] = system: Lewis lung carcinoma (LLC); experiment: LLC lung metastasis model; assay type: in vivo, C57BL/6 mice; settings: LLC i.v.; DSF 40 mg kg-1 i.p. daily
Procedure: For evaluating subcutaneous tumor growth, LLC or B16 cells (5 × 10^5) in 50 μl PBS were inoculated subcutaneously into the right flanks of mice. Mice were euthanized when their tumor volumes reached 4000 mm^3. Tumor sizes were measured twice a week using calipers. Tumor volume was calculated using the following formula: Volume = (width)^2 × length/2. For the lung metastasis model, 1 × 10^6 LLC or B16 cells in 200 μl PBS were injected intravenously into mice. Mice were euthanized at day 10 after tumor injection for the LLC model and day 5–9 for the B16 model, and the lungs were isolated after perfusion with PBS via the left ventricle. Visible lung metastases were counted in the left lobe. The diameters of metastatic nodules in the lung lobe image were measured using ImageJ software. […] Anti-PD-1 antibody (clone J43, BioXcell) was injected intraperitoneally at a dose of 200 μg per mouse on day 5, 8, 14, and 18 after tumor inoculation.

[2] = system: MMTV-PyVT spontaneous mammary tumor; experiment: MMTV-PyVT spontaneous mammary tumor model; assay type: in vivo, mice; settings: treatment from age of 17 weeks
[3] = molecular target: T1, Full-length FROUNT protein (Homo sapiens, UniProt Q9BW27); experiment: Surface plasmon resonance binding to FROUNT; settings: SPR, concentration-dependent
T1 construct: made in house
T1 sequence (Q9BW27 1-656): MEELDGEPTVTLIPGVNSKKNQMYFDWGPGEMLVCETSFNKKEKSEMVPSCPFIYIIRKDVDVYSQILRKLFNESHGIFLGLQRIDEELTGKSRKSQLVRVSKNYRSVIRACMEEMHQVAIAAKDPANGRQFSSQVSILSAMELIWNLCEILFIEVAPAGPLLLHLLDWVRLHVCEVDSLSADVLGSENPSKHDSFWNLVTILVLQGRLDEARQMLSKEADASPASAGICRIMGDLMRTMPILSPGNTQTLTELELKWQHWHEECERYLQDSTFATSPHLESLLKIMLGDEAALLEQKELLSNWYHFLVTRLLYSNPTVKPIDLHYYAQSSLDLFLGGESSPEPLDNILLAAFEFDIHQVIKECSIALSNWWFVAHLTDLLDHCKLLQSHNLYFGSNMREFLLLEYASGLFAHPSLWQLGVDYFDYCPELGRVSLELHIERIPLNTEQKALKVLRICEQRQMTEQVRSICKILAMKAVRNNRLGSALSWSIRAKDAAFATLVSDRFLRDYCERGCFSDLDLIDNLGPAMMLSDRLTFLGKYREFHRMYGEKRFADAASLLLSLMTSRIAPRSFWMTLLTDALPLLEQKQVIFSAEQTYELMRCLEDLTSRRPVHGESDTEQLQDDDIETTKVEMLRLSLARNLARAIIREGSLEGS
Procedure: Interactions between FROUNT and library compounds were analyzed by surface plasmon resonance using a Biacore T100 (GE Healthcare). Full-length FROUNT protein or the FROUNT-binding region of CCR2 was immobilized on the CM5 sensor chip[56]. […] The resonance unit (RU) was measured during the binding and washing periods, and the binding kinetics were analyzed. Solvent correction with DMSO was performed using Biacore T100 evaluation software.

[4] = system: THP-1 cells; experiment: Chemotaxis inhibition assay (chemoTX chamber, CCL2); assay type: cell-based, human; settings: towards CCL2, 90 min
Procedure: Chemotaxis was measured in a 96-well chemoTX chemotaxis chamber with a polycarbonate filter (5-μm pore size) (Neuro probe). Human CCL2 (R&D Systems) was added to the lower chamber of the plate and the cells were added to the upper chamber. After incubation at 37 °C and 5% CO2 for 90 min, the filter was removed and the number of migrated cells in the lower chamber was counted using a cell counting kit F (Dojindo). Data are expressed as migration efficiency (percentage of the maximal migration).

[5] = system: LLC tumor cells; experiment: LLC tumor cell growth (WST-1 assay); assay type: cell-based; settings: 48 h
Procedure: To evaluate the effects of compounds on cell growth, cells were incubated with inhibitors for 48 h, then WST-1 (Dojindo) was added to the culture for the final 30 min. An Envision instrument (PerkinElmer) was used to measure the absorbance of each well at 450 nm versus a 650-nm reference to detect the amount of formazan produced from WST-1 by mitochondrial dehydrogenases in viable cells.

CCN(CC)C(=S)SSC(=S)N(CC)CC [DSF, disulfiram]
lung metastatic nodule formation [1]: significantly reduced
growth of established tumors [2]: impaired
binding to FROUNT protein [3]: directly binds
cellular chemotaxis [4]: inhibited
in vitro growth [5]: no effect
